pIC50: −log10 of the molar value.
What was measured:
PXR = PXR (Homo sapiens (Human), UniProt O75469); assay: Potential for PXR activation in DPX2 cells; format: cell-based; details: 30 μM, versus 20 μM rifampicin
Protocol: DMSO solutions of the compounds to be tested and the control compound rifampicin solution were prepared, and diluted with Puracyp dosing medium (Puracyp, Cat. No: D-500-100) at 37° C. to respective test concentrations. The final concentrations of the compounds to be tested were 30 μM, 10 μM, and 1 μM, respectively, and the final concentration of rifampicin was 20 μM. The final concentration of DMSO in the test solution was 0.1%. In addition, 0.1% DMSO solution prepared with Puracyp dosing medium was used as a control.
DPX2 cells were suspended in Puracyp Culture medium (Puracyp, Cat No.: C-500-100) at a cell density of 4.5×10^5 cell/mL. Then, the suspension was placed on a 96-well culture plate at 100 μL/well for incubation at 37° C. for 24 h. The medium in appropriate wells of the 96-well culture plate was replaced (three times per well) by 100 μL of solution of the compounds to be tested and a control compound solution. After replacement, the plate was incubated at 37° C. for 24 h. The medium was then replaced (three times per well) by a newly prepared test solution of the compounds to be tested and a rifampicin test solution, and the plate was incubated at 37° C. for 24 h.
The medium in the 96-well culture plate was pipetted and washed twice with PBS. To each well, 50 μL of reagent diluted as required by CellTiter-Fluor™ Cell Viability Assay Kit (Promega, Cat. No.: G6082) was added, and incubated at 37° C. for 0.5 h. The 96-well plate was cooled to room temperature, and the fluorescence value of each well at 505 nm was measured in a fluorescence mode with a microplate reader at an excitation wavelength of 400 nm. Then, 50 μL of reagent prepared as required by One-Glo Luciferase Assay System (Promega, Cat. No.: E6120) was added to each well, and the mixture was incubated at room temperature for 5 min. The luminescence value of each well was read by using a lumen meter.
Normalized luciferase activity was determined by RLU/RFU, and the RLU and RFU of the samples were mean values of duplicate wells, respectively.
[formula] • Fold of activation: fold of activation of normalized luciferase; • RLUtest: measured luminescence value of test wells at each test dose of test compounds; • RLUvehicle: measured luminescence value of test wells when tested with the control DMSO solution; • RFUtest: measured fluorescence value of test wells at each test dose of test compounds; • RFUvehicle: measured fluorescence value of test wells when tested with the control DMSO solution.
The percentage of positive control was calculated as follows:
% Positive control=(fold activationtest compound−1)/(fold activationpositive control compound−1)×100% • % Positive control: percentage of PXR activation compared with 20 μM rifampicin activation at each test dose of test compounds; • Fold activationtest compound: fold of activation of normalized luciferase at each test dose of test compounds; • Fold activationpositive control compound: fold of activation of normalized luciferase of test compounds under 20 μM rifampicin.

[1] = biological target: USP1 (Recombinant Human His6-USP1/His6-UAF1 Complex Protein) (Homo sapiens (Human), UniProt O94782); assay: In vitro activity assay for USP1 (Ub-CHOP2-Reporter deubiquitination assay); format: biochemical; details: 0.5 h incubation at room temperature, read-out: In vitro inhibitory activity of USP1 IC50
Chain of USP1 (Recombinant Human His6-USP1/His6-UAF1 Complex Protein) (O94782 whole entry): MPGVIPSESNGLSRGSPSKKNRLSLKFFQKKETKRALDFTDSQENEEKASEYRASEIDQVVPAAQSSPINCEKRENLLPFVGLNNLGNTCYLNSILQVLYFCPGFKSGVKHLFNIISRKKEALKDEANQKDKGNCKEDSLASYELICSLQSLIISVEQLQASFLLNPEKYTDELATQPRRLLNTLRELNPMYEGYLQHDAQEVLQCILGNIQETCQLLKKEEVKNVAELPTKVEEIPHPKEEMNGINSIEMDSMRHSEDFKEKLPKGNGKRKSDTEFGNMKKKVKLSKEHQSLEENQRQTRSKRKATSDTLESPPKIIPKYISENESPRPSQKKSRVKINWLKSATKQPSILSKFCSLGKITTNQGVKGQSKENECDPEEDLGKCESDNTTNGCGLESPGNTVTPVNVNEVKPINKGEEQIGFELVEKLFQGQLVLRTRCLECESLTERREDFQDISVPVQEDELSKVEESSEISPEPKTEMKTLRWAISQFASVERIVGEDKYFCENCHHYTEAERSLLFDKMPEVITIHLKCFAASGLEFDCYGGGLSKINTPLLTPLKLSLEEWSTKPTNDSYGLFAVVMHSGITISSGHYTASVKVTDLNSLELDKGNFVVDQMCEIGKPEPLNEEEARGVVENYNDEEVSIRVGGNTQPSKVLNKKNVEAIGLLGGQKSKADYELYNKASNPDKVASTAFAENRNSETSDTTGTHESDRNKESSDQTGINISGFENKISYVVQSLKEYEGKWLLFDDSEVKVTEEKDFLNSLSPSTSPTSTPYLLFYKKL
Chain of USP1 (Recombinant Human His6-USP1/His6-UAF1 Complex Protein) (Q8TAF3 whole entry partner): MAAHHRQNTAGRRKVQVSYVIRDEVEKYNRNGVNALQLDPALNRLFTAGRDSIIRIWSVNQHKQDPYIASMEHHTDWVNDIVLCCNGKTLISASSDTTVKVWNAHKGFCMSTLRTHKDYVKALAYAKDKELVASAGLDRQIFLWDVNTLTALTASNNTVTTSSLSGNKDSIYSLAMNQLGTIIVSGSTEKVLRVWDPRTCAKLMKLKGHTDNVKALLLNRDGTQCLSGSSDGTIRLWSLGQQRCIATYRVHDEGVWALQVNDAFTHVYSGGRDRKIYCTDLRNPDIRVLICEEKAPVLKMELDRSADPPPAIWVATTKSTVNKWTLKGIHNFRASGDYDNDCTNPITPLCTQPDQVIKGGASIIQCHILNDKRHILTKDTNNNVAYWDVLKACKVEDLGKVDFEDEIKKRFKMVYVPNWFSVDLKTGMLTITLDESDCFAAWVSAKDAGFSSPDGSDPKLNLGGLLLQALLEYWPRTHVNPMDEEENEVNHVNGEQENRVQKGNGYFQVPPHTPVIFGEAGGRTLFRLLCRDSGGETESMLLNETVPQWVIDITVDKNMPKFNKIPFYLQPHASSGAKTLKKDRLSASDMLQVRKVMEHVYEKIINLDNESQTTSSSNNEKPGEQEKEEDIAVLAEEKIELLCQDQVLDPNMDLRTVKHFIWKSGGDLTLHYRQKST
Method in brief: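 His6-USP1/His6-UAF1 complex was mixed with compound in 20 mM Tris-HCl pH 8.0, 2 mM CaCl2, 2 mM β-mercaptoethanol and 0.05% CHAPS. Ub-CHOP2 reporter system plus substrate was added, then incubated 0.5 h at room temperature. IC50 came from a four-parameter logistic fit.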

Chain of PXR (O75469 whole entry): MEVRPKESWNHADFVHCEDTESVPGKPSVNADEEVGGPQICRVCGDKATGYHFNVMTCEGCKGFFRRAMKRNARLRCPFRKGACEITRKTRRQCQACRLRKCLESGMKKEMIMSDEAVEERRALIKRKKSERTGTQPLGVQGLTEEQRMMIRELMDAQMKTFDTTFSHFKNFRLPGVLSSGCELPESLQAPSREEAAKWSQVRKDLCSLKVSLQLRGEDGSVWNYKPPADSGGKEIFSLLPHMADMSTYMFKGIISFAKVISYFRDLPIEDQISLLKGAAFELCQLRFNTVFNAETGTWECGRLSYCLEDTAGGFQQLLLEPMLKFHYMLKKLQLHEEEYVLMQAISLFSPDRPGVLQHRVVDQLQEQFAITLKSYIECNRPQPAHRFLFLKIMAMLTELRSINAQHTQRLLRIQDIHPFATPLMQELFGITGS

PXR activation (% Positive control) (PXR): 14.0 % Positive control
pIC50 [1]: 7.34
SMILES: COc1ncnc(C2CC2)c1-c1ncc2c(n1)N(Cc1ccc(-c3nc(C(F)(F)F)cn3C)cc1)CC(=O)N2C [Compound 11, 2-(4-cyclopropyl-6-methoxypyrimidin-5-yl)-5-methyl-8-(4-(1-methyl-4-(trifluoromethyl)-1H-imidazol-2-yl)benzyl)-7,8-dihydropteridin-6(5H)-one]

From patent publication US20240226107A1, “UBIQUITIN-SPECIFIC PROTEASE 1 (USP1) INHIBITOR” (SIMCERE ZAIMING PHARMACEUTICAL CO., LTD., priority 2021, published 2024)
